The record followed here is paper PMC9866218, “Characterization and Chemical Synthesis of Cm39 (α-KTx 4.8): A Scorpion Toxin That Inhibits Voltage-Gated K^+ Channel KV1.2 and Small- and Intermediate-Conductance Ca^2+-Activated K^+ Channels KCa2.2 and KCa3.1” (Toxins, 2023).

The target of one experiment is T1, hKCa3.1 (Homo sapiens, UniProt O15554).
T1 construct: EGFP (vector pEGFP-C1); expressed in transfected cells; host or cells: CHO cells, transient transfection
The experiment in a line: Whole-cell patch-clamp, block of KCa3.1 current. The experiment is classed as cell-based. An excerpt:
(§1) We, therefore, aimed at testing the pharmacological activity of sCm39 on a battery of various potassium and sodium ion channels. Among the tested channels were six members of human voltage-gated K^+ (hKV) channels from Shaker family, hKV1.1-hKV1.6 (Figure 3A–F) and three members of Ca^2+-activated potassium channel; hKCa2.2 (SK2, Figure 3I), the small-conductance Ca^2+-activated channel; hKCa3.1 (IKCa1, SK4. Figure 3J), the intermediate-conductance Ca^2+-activated channel expressed in T lymphocytes; and mKCa1.1 (BK, Slo1, MaxiK, Figure 3H), the large-conductance voltage- and Ca^2+-activated channel of mice. In addition, we also screened the effect of Cm39 on hKV11.1 (hERG1, Figure 3G), a voltage-gated cardiac K^+ channel, and two human voltage-gated sodium (hNaV) channels, hNaV1.4 (Figure 3K) and hNaV1.5 (Figure 3L), expressed in skeletal and cardiac muscles, respectively. These ion channels were heterologously expressed in the CHO or HEK cell lines except for KV1.3. Human peripheral T lymphocytes. They were stimulated with Phytohemagglutinin A (PHA) to increase the KV1.3 channel expression, and Ca^2+-free intracellular solution was used to avoid KCa3.1 channel activation. Appropriate depolarization protocols were used to record ionic currents in voltage-clamped cells (see Figure 3 insets and Material and Methods for details). Freshly dissolved sCm39 in extracellular solution was applied at 1 µM concentration on the cell using a custom-built micro-perfusion system at ~200 µL/min flow rate.
The whole-cell K^+ currents of CHO cells transiently expressing KCa2.2 or KCa3.1 channels were recorded sequentially by applying the 150 ms long voltage ramp to +50 mV from Vh of −120 mV every 10 s in the presence of control solution or upon perfusing the cell with different concentrations of sCm39. Normalized peak currents were calculated and plotted as function of time as shown in Figure 5A for KCa2.2 and in Figure 5C for KCa3.1 in the presence of the toxin at various concentrations and upon wash-out. […] RCF values were determined at equilibrium block in the presence of various concentrations of sCm39 and fitted with the Hill equation (see Materials and Methods for details).
Chinese hamster ovary (CHO) cells (gift from Yosef Yarden, Weizmann Institute of Science, Rehovot, Israel) were maintained by culturing in Dulbecco’s modified Eagle medium (DMEM, Gibco) supplemented with 2 mM L-glutamine, 10% FBS, 100 µg/mL streptomycin and 100 U/mL penicillin-g (Sigma-Aldrich) at a density of 0. 5−1×10^6 cells per mL in a humidified incubator at 37 °C and 5% CO2. Cells were passaged 3 times in a week following a 2–5 min incubation in 0.05% trypsin-EDTA solution at 37 °C. Cultures were used up to passage number 20. PCR-based tests were routinely used to detect mycoplasma infection, only mycoplasma-free cultures were used for experiments.
Those plasmids which lack a fluorescent tag were co-transfected with a plasmid encoding GFP. Transfections were performed at a GFP:channel DNA molar ratio of 1:10 using the Lipofectamine 2000 kit (Invitrogen) according to the manufacturer’s protocol. […] Generally, currents were recorded 24 to 48 h post transfection.
For the measurement of KV1.x, mKCa1.1 and NaV1.x currents the extracellular solution was composed of (in mM) 145 NaCl, 5 KCl, 2.5 CaCl2, 1 MgCl2, 10 HEPES and 5.5 glucose, pH 7.35.
On the technique in general: The patch-clamp technique gives a direct electrical read-out from membranes.

The next experiment has as its system hKV1.5. The experiment can be described thus: Whole-cell patch-clamp, block of KV1.5 current. To be noted: CHO cells. The experiment is classed as cell-based, human.
Excerpt: as §1, with “Appropriate depolarization protocols were used to record ionic currents in voltage-clamped cells (see Figure 3 insets and Material and Methods for details). Freshly dissolved sCm39 in extracellular solution was applied at 1 µM concentration on the cell using a custom-built micro-perfusion system at ~200 µL/min flow rate.” left out
Those plasmids which lack a fluorescent tag were co-transfected with a plasmid encoding GFP. […] Generally, currents were recorded 24 to 48 h post transfection. […]

“Also recorded” adds a separate entry of the source.

T1 sequence (O15554 whole entry): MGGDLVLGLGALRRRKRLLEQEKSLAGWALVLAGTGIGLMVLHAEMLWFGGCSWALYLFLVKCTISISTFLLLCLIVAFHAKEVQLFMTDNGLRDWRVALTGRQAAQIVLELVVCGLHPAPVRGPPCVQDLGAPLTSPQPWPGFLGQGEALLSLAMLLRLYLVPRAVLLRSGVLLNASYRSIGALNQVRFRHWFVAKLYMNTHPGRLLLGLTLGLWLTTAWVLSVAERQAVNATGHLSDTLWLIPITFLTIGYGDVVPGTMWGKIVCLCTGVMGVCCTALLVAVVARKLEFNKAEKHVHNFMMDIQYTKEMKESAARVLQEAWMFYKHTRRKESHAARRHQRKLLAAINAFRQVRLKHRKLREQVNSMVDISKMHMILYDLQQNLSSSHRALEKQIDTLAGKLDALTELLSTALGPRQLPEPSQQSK

Consider `CC[C@H](C)[C@@H]1NC(=O)[C@H](C)NC(=O)[C@H](C)NC(=O)[C@H](CCCCN)NC(=O)[C@@H]2CSSC[C@@H](C(=O)N[C@@H](Cc3ccc(O)cc3)C(=O)N[C@@H](Cc3ccc(O)cc3)C(=O)O)NC(=O)[C@H](CCCCN)NC(=O)[C@@H]3CSSC[C@H](NC(=O)[C@H](CCC(=O)O)NC(=O)[C@H](CO)NC(=O)[C@H](CO)NC(=O)[C@H](CO)NC(=O)[C@H](CCCCN)NC(=O)[C@@H](NC(=O)[C@H](CCCCN)NC(=O)[C@H](Cc4c[nH]cn4)NC(=O)[C@H](CC(N)=O)NC(=O)[C@@H](NC(=O)[C@H](Cc4ccccc4)NC(=O)[C@@H](N)[C@@H](C)O)[C@@H](C)CC)CSSC[C@H](NC(=O)[C@H](CCCCN)NC(=O)CNC(=O)[C@H](CO)NC(=O)[C@H](C)NC(=O)[C@H](CCCNC(=N)N)NC(=O)CNC1=O)C(=O)N[C@@H]([C@@H](C)CC)C(=O)N[C@@H](CC(N)=O)C(=O)N[C@@H](CO)C(=O)N[C@@H]([C@@H](C)O)C(=O)N3)C(=O)N[C@@H](CC(C)C)C(=O)N1CCC[C@H]1C(=O)N[C@@H](C)C(=O)N2` [Cm39], for which the “reduction of current at equilibrium block” value on hKCa3.1 (1 µM, CHO cells, current at +48 mV, n = 3−5 (Figure 3M)) was 86%. Moreover, the “toxin association and dissociation kinetics” value on hKCa3.1 (CHO cells) was “fast”; at hKCa3.1 (CHO cells, listed as sCm39) it was “very fast”. Further, the “Hill coefficient (H)” value at hKCa3.1 (concentration-response of KCa3.1 block, CHO cells) is 0.68. For the same compound, the “development and almost full recovery from equilibrium block” value on hKCa3.1 (pulses separated by 10 s) is 1–3 depolarization pulses. Moreover, the “reversibility of KCa3.1 block” value at hKCa3.1 (wash-out with toxin-free solution) is listed as “fully reversible”. The “inhibition (in words)” value with hKV1.5 (1 μM) is “does not inhibit; also recorded: did not show any effect”. In the experiment with hKV1.5 (1 µM, 3−5 min, n = 3−5), this compound displayed a decrease in current of under 3%.
